Square brackets hold non-standard residues; d marks the D form. Peptide text beside a SMILES is read from it.
What was measured:
[1] = test system: C2C12 Mouse Myoblasts; test: Glucose utilization (glucose remaining in medium); type: cell-based; conditions: peptide 10 μM, 18-22 hours, relative to 0.1% DMSO treated control cells
Experimental: The effect of the peptides on glucose metabolism can be assessed using an assay of glucose utilization in cultured cells such as mouse myoblasts. Peptides were initially prepared as 10 mM stock in DMSO and used at a final concentration of 10 μM (0.1% DMSO). C2C12 mouse myoblast cell line was purchased from American Type Culture Collection (Manassas, VA). C2C12 cultures were maintained at 37° C. in a humidified atmosphere of 5% CO2/95% air with medium changes every second day. C2C12 cells were grown in DMEM (1 g/L glucose) supplemented with 10% FBS with 100 IU/ml penicillin and 100 μg/ml streptomycin. C2C12 cells were seeded at 7,000 cells per well on 96-well plates and cultured to confluence. Once the cell reached confluence the media was changed to DMEM (1 g/L glucose) supplemented with 2% HS with 100 IU/ml penicillin and 100 μg/ml streptomycin and maintained at 37° C. in a humidified atmosphere of 5% CO2/95% air. 5 days post-induction of differentiation fresh DMEM (1 g/L glucose) supplemented with 2% HS with 100 IU/ml penicillin and 100 μg/ml streptomycin was added to cultures. Cells were maintained at 37° C. in a humidified atmosphere of 5% CO2 and 95% air for 5 hours. After 5 hours test peptides at 10 μM or controls (0.5 mM or 1 mM metformin in 1% DMSO) prepared in fresh differentiation medium were added to cells and the cultures were maintained at 37° C. in a humidified atmosphere of 5% CO2/95% air for 18-22 hours. At the end of the incubation culture media was removed from the cells and the remaining glucose concentration was measured using a Glucose Assay kit (Abcam) according to the manufacturer's instructions, using a Cytation 3 plate reader at 570 nm (BioTek, Winooski, VT). Glucose concentrations in the medium were calculated relative to 0.1% DMSO treated control cells. The relative standard deviation of the result for the 0.1% DMSO treated control was <20%. Metformin was used as a positive control for reduction of glucose levels (increased glucose utilization glucose levels for treatment with metformin (1 mM) treatment were <20% of the 0.1% DMSO treated control value. The results are reported in Table 11.

[2] = test system: 3T3-L1 Mouse Adipocytes; test: Free fatty acid levels in cultured mouse adipocytes stimulated with isoproterenol; type: cell-based; conditions: peptide 10 μM, 20-22 hours then 3 hours with 1 nM isoproterenol; relative to isoproterenol treated cells
Experimental: The effect of the peptides on fatty acid metabolism can be assessed using an assay of free fatty acid levels in cultured cells such as mouse adipocytes. Peptides were initially prepared as 10 mM stock in DMSO and used at a final concentration of 10 μM (0.1% DMSO). […] Mouse 3T3-L1 cells purchased from ZenBio were seeded at 3,000 cells per well in 96-well plates in Pre-adipocyte Medium (Zen-Bio) and grown to confluence at 37° C. in a humidified atmosphere of 5% CO2/95% air. Two days after confluence, cells were placed in Adipocyte Differentiation Medium (Zen-Bio) and cultured for three additional days at 37° C. in a humidified atmosphere of 5% CO2/95% air. The culture media was then replaced with Adipocyte Maintenance Medium (Zen-Bio) and the cells maintained for an additional 9-12 days at 37° C. in a humidified atmosphere of 5% CO2/95% air with partial medium replacement every other day. Following 12-15 days of differentiation, test peptides were added at a final concentration of 10 μM in 0.1% DMSO and incubated for 20-22 hours in Adipocyte Maintenance Medium at 37° C. in a humidified atmosphere of 5% CO2/95% air. After 20-22 hours, 1 nM isoproterenol was added to all wells except untreated controls and test peptides were replenished. Insulin at 100 nM was added to control wells. Cells were incubated for 3 hours in Assay Buffer (Zen-Bio) at 37° C. in a humidified atmosphere of 5% CO2/95% air. Free fatty acid concentrations in the media were determined using a Free Fatty Acid Assay kit (Zen-Bio) according to the manufacturer's instructions using a Cytation 3 plate reader at 540 nm (BioTek, Winooski, VT). Absorbance values were corrected for untreated background and expressed relative to isoproterenol treated cells. Treatment with isoproterenol (1 nM) alone was used as the free fatty acid level stimulatory control. The relative standard deviation of the isoproterenol control was <10%. […] Free fatty acid levels for insulin (100 nM) treatment were <5% of the isoproterenol control value.

[3] = test system: SH-SY5Y Neuroblastoma Cells Exposed to Staurosporine; test: ATP levels in cells exposed to staurosporine (CellTiter-Glo); type: cell-based, human; conditions: peptide 10 μM plus staurosporine (40 μM), 18-20 hours; <100% cytoprotective, >100% synergistic
Experimental: Peptides were initially prepared as 10 mM stock in DMSO and tested at a final concentration of 10 μM (0.1% DMSO). […] […] CellTiter-Glo® Assay kit was purchased from Promega. SH-SY5Y human neuroblastoma cell line was purchased from American Type Culture Collection (Manassas, VA) and licensed from Memorial Sloan-Kettering Cancer Center (New York, NY). SH-SY5Y cells were grown in DMEM/F12 medium supplemented with 10% FBS with 100 IU/ml penicillin and 100 μg/ml streptomycin. Cultures were maintained at 37° C. in a humidified atmosphere of 5% CO2/95% air. SH-SY5Y cells were seeded at 30,000 cells per well on 96-well plates. […] ATP levels were determined using a CellTiter-Glo Assay kit (Promega) according to the manufacturer's instructions. Luminescence for each sample well on the plate was measured using a Cytation 3 plate reader (BioTek, Winooski, VT). […] A value less than 100% is indicative of a cytoprotective effect, while a value greater than 100% is indicative of a synergistic effect on viability.

[4] = test system: A172 Cells; test: PrestoBlue cell viability assay; type: cell-based; conditions: human, 10 μM
Experimental: The effect of the peptides on cell viability can be assessed in cultured cells using suitable assay of viability such as the PrestoBlue® assay (Thermo Fisher Scientific, Waltham, MA). Peptides were initially prepared as 10 mM stock in DMSO and tested at a final concentration of 10 μM (0.1% DMSO). […] PrestoBlue Assay Reagent was purchased from Thermo Fisher Scientific. A172 human brain glioblastoma cell line was purchased from American Type Culture Collection (Manassas, VA). A172 cells were grown in DMEM supplemented with 10% FBS with 100 IU/ml penicillin and 100 μg/ml streptomycin. Cultures were maintained at 37° C. in a humidified atmosphere of 5% CO2/95% air. A172 cells were seeded at 8,000 cells per well on 96-well plates. […] Cell viability was determined using a PrestoBlue Assay reagent […] according to the manufacturer's instructions. Absorption for each sample well on the plate was measured using a Cytation 3 plate reader at 560 nm and 590 nm (BioTek, Winooski, VT). Activity was calculated relative to 0.1% DMSO untreated control. Treatment with 0.1% DMSO alone was used as the cell viability activity control. The relative standard deviation of the DMSO control was <5%.

Row | Compound | Glucose Utilization (glucose concentration in medium), Percent of Untreated Control [1] [%] | Free Fatty Acid Levels, MEAN %ISO [2] [%] | Percent of ATP Reduction Induced by Control [3] [%] | PrestoBlue cell viability, Percent of Control Activity [4] [%]
1 | CC[C@H](C)[C@H](NC(=O)[C@H](CC(C)C)NC(=O)[C@H](CC(C)C)NC(=O)[C@@H](N)CCSC)C(=O)N[C@@H](CC(C)C)C(=O)N[C@H](C(=O)N[C@@H](CC(C)C)C(=O)N[C@H](C(=O)N[C@@H](CC(C)C)C(=O)N[C@H](C)C(=O)O)C(C)C)[C@@H](C)O [compound 3] (H-MLLILTLVL[dA]-OH; N-terminus and C-terminus assumed) | 105.2 | 57.7 | 102.7 | 96.5
2 | CC[C@H](C)[C@H](NC(=O)[C@H](CC(C)C)NC(=O)[C@H](C)NC(=O)[C@@H](N)CCSC)C(=O)N[C@@H](CC(C)C)C(=O)N[C@H](C(=O)N[C@@H](CC(C)C)C(=O)N[C@H](C(=O)N[C@@H](CC(C)C)C(=O)N[C@H](C)C(=O)O)C(C)C)[C@@H](C)O [compound 4] (H-MALILTLVL[dA]-OH; N-terminus and C-terminus assumed) | 117.2 | 71.3 | 94.0 | 99.7
3 | CC[C@H](C)[C@H](NC(=O)[C@H](CC(C)C)NC(=O)[C@H](C)NC(=O)[C@@H](N)CCSC)C(=O)N[C@@H](CC(=O)O)C(=O)N[C@H](C(=O)N[C@@H](CC(C)C)C(=O)N[C@H](C(=O)N[C@@H](CC(C)C)C(=O)N[C@H](C)C(=O)O)C(C)C)[C@@H](C)O [compound 5] (H-MALIDTLVL[dA]-OH; N-terminus and C-terminus assumed) | 128.8 | 95.7 | 106.1 | 97.0
4 | CC[C@H](C)[C@H](NC(=O)[C@@H](NC(=O)CNC(=O)[C@@H](C)NC(=O)[C@@H](N)CCSC)C(C)C)C(=O)N[C@@H](CCCNC(=N)N)C(=O)NCC(=O)N[C@H](C(=O)N[C@@H](CC(C)C)C(=O)N[C@H](C(=O)N[C@@H](CC(C)C)C(=O)O)C(C)C)C(C)C [compound 9] (H-M[dA]GVIRGVLVL-OH; N-terminus and C-terminus assumed) | 128.4 | 88.2 | 95.1 | 94.8
5 | CC[C@H](C)[C@H](NC(=O)[C@@H](NC(=O)CNC(=O)[C@@H](C)NC(=O)[C@@H](N)CCSC)C(C)C)C(=O)N[C@@H](CCCNC(=N)N)C(=O)N[C@@H](C)C(=O)N[C@H](C(=O)N[C@@H](CC(C)C)C(=O)N[C@H](C(=O)N[C@@H](CC(C)C)C(=O)O)C(C)C)C(C)C [compound 10] (H-M[dA]GVIRAVLVL-OH; N-terminus and C-terminus assumed) | 109.1 | 96.4 | 90.4 | 99.6
6 | CC[C@H](C)[C@H](NC(=O)[C@H](Cc1c[nH]c2ccccc12)NC(=O)[C@H](CCC(N)=O)NC(=O)[C@@H](N)CCCNC(=N)N)C(=O)N[C@@H](CC(C)C)C(=O)N[C@@H](Cc1c[nH]cn1)C(=O)N[C@@H](CC(N)=O)C(=O)N[C@H](C)C(=O)NCC(=O)N[C@@H](CCSC)C(=O)N[C@@H](CO)C(=O)N[C@@H](Cc1ccccc1)C(=O)N[C@@H](Cc1ccccc1)C(=O)N[C@@H](CS)C(=O)O [compound 14] (H-RQWILHN[dA]GMSFFC-OH; N-terminus and C-terminus assumed) | 115.7 | 70.4 | 93.6 | 97.5
7 | CSCC[C@H](NC(=O)CNC(=O)[C@@H](C)NC(=O)[C@H](CC(N)=O)NC(=O)[C@H](Cc1c[nH]cn1)NC(=O)[C@H](CC(C)C)NC(=O)[C@H](CCC(=O)O)NC(=O)[C@H](Cc1c[nH]c2ccccc12)NC(=O)[C@H](CCC(N)=O)NC(=O)[C@@H](N)CCCNC(=N)N)C(=O)N[C@@H](CO)C(=O)N[C@@H](C)C(=O)N[C@@H](Cc1ccccc1)C(=O)N[C@@H](CS)C(=O)O [compound 15] (H-RQWELHN[dA]GMSAFC-OH; N-terminus and C-terminus assumed) | 115.1 | 54.5 | 88.4 | 98.8
8 | CSCC[C@H](NC(=O)[C@H](CCCNC(=N)N)NC(=O)[C@H](CCCNC(=N)N)NC(=O)[C@@H](N)CCCNC(=N)N)C(=O)N[C@@H](Cc1ccccc1)C(=O)N[C@@H](CO)C(=O)N[C@@H](CS)C(=O)N[C@@H](Cc1ccc(O)cc1)C(=O)N[C@H](C)C(=O)N[C@@H](Cc1ccc(O)cc1)C(=O)O [compound 19] (H-RRRMFSCY[dA]Y-OH; N-terminus and C-terminus assumed) | 115.7 | 64.0 | 99.5 | 98.8

From patent US20240034753A1, “THERAPEUTIC PEPTIDES” (COHBAR, INC., priority 2020, published 2024)
